Source: PubChem BioAssay (NCI)
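GI50 marks 50% less growth. TGI: concentration producing complete growth inhibition.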

Experiments:
Assay in all cases: DTP human tumour cell line panel, 384-well format
786-0 renal = tested on: 786-0 renal
A498 renal = tested on: A498 renal
A549 NSCLC = tested on: A549 NSCLC
ACHN renal = tested on: ACHN renal
BT-549 breast = tested on: BT-549 breast
CAKI-1 renal = tested on: CAKI-1 renal
CCRF-CEM leukemia = tested on: CCRF-CEM leukemia
COLO 205 colon = tested on: COLO 205 colon
DU-145 prostate = tested on: DU-145 prostate
EKVX NSCLC = tested on: EKVX NSCLC
HCC-2998 colon = tested on: HCC-2998 colon
HCT-116 colon = tested on: HCT-116 colon
HCT-15 colon = tested on: HCT-15 colon
HL-60(TB) leukemia = tested on: HL-60(TB) leukemia
HOP-62 NSCLC = tested on: HOP-62 NSCLC
HOP-92 NSCLC = tested on: HOP-92 NSCLC
HT29 colon = tested on: HT29 colon
IGROV1 ovarian = tested on: IGROV1 ovarian
K-562 leukemia = tested on: K-562 leukemia
KM12 colon = tested on: KM12 colon
LOX IMVI melanoma = tested on: LOX IMVI melanoma
M14 melanoma = tested on: M14 melanoma
MALME-3M melanoma = tested on: MALME-3M melanoma
MCF7 breast = tested on: MCF7 breast
MDA-MB-231 breast = tested on: MDA-MB-231 breast
MDA-MB-435 melanoma = tested on: MDA-MB-435 melanoma
MDA-MB-468 breast = tested on: MDA-MB-468 breast
MOLT-4 leukemia = tested on: MOLT-4 leukemia
NCI-H226 lung = tested on: NCI-H226 lung
NCI-H23 lung = tested on: NCI-H23 lung
NCI-H322M lung = tested on: NCI-H322M lung
NCI-H460 NSCLC = tested on: NCI-H460 NSCLC
NCI-H522 lung = tested on: NCI-H522 lung
NCI/ADR-RES ovarian = tested on: NCI/ADR-RES ovarian
OVCAR-3 ovarian = tested on: OVCAR-3 ovarian
OVCAR-4 ovarian = tested on: OVCAR-4 ovarian
OVCAR-5 ovarian = tested on: OVCAR-5 ovarian
OVCAR-8 ovarian = tested on: OVCAR-8 ovarian
PC-3 prostate = tested on: PC-3 prostate
RPMI-8226 leukemia = tested on: RPMI-8226 leukemia
RXF 393 renal = tested on: RXF 393 renal
SF-268 CNS = tested on: SF-268 CNS
SF-295 CNS = tested on: SF-295 CNS
SF-539 CNS = tested on: SF-539 CNS
SK-MEL-2 melanoma = tested on: SK-MEL-2 melanoma
SK-MEL-28 melanoma = tested on: SK-MEL-28 melanoma
SK-MEL-5 melanoma = tested on: SK-MEL-5 melanoma
SK-OV-3 ovarian = tested on: SK-OV-3 ovarian
SN12C renal = tested on: SN12C renal
SNB-19 CNS = tested on: SNB-19 CNS
SNB-75 CNS = tested on: SNB-75 CNS
SR leukemia = tested on: SR leukemia
SW-620 colon = tested on: SW-620 colon
T-47D breast = tested on: T-47D breast
TK-10 renal = tested on: TK-10 renal
U251 glioblastoma = tested on: U251 glioblastoma
UACC-257 melanoma = tested on: UACC-257 melanoma
UACC-62 melanoma = tested on: UACC-62 melanoma
UO-31 renal = tested on: UO-31 renal

CC(C)Oc1ccc(-c2nn([C@@H](C)c3oc4ccc(F)cc4c(=O)c3-c3cccc(F)c3)c3ncnc(N)c23)cc1F
GI50 ([…]-0 renal): 26.2 µM | TGI (786-0 renal): > 100 µM | GI50 (A498 renal): 8.65 µM | TGI (A498 renal): > 100 µM | GI50 (A549 NSCLC): 11.1 µM | TGI (A549 NSCLC): > 100 µM | GI50 (ACHN renal): > 86.8 µM | TGI (ACHN renal): > 100 µM | GI50 (BT-549 breast): 10.3 µM | TGI (BT-549 breast): > 100 µM | GI50 (CAKI-1 renal): > 100 µM | TGI (CAKI-1 renal): > 100 µM | GI50 (CCRF-CEM leukemia): 3.62 µM | TGI (CCRF-CEM leukemia): > 83.9 µM | GI50 (COLO 205 colon): > 100 µM | TGI (COLO 205 colon): > 100 µM | GI50 (DU-145 prostate): > 100 µM | TGI (DU-145 prostate): > 100 µM | GI50 (EKVX NSCLC): > 100 µM | TGI (EKVX NSCLC): > 100 µM | GI50 (HCC-2998 colon): > 100 µM | TGI (HCC-2998 colon): > 100 µM | GI50 (HCT-116 colon): 13.9 µM | TGI (HCT-116 colon): > 100 µM | GI50 (HCT-15 colon): 32.5 µM | TGI (HCT-15 colon): > 100 µM | GI50 (HL-60(TB) leukemia): 5.31 µM | TGI (HL-60(TB) leukemia): > 36 µM | GI50 (HOP-62 NSCLC): > 100 µM | TGI (HOP-62 NSCLC): > 100 µM | GI50 (HOP-92 NSCLC): 8.09 µM | TGI (HOP-92 NSCLC): > 80.9 µM | GI50 (HT29 colon): > 100 µM | TGI (HT29 colon): > 100 µM | GI50 (IGROV1 ovarian): > 100 µM | TGI (IGROV1 ovarian): > 100 µM | GI50 (K-562 leukemia): 5.18 µM | TGI (K-562 leukemia): > 100 µM | GI50 (KM12 colon): > 100 µM | TGI (KM12 colon): > 100 µM | GI50 (LOX IMVI melanoma): > 100 µM | TGI (LOX IMVI melanoma): > 100 µM | GI50 (M14 melanoma): > 100 µM | TGI (M14 melanoma): > 100 µM | GI50 (MALME-3M melanoma): > 100 µM | TGI (MALME-3M melanoma): > 100 µM | GI50 (MCF7 breast): 9.51 µM | TGI (MCF7 breast): > 100 µM | GI50 (MDA-MB-231 breast): 9.94 µM | TGI (MDA-MB-231 breast): > 100 µM | GI50 (MDA-MB-435 melanoma): > 100 µM | TGI (MDA-MB-435 melanoma): > 100 µM | GI50 (MDA-MB-468 breast): 5.71 µM | TGI (MDA-MB-468 breast): > 83.7 µM | GI50 (MOLT-4 leukemia): 3.51 µM | TGI (MOLT-4 leukemia): > 100 µM | GI50 (NCI-H226 lung): 51.5 µM | TGI (NCI-H226 lung): > 100 µM | GI50 (NCI-H23 lung): 38.5 µM | TGI (NCI-H23 lung): > 100 µM | GI50 (NCI-H322M lung): > 100 µM | TGI (NCI-H322M lung): > 100 µM | GI50 (NCI-H460 NSCLC): 10.5 µM | TGI (NCI-H460 NSCLC): > 100 µM | GI50 (NCI-H522 lung): 12.9 µM | TGI (NCI-H522 lung): > 100 µM | GI50 (NCI/ADR-RES ovarian): 19.5 µM | TGI (NCI/ADR-RES ovarian): > 100 µM | GI50 (OVCAR-3 ovarian): 12.1 µM | TGI (OVCAR-3 ovarian): > 100 µM | GI50 (OVCAR-4 ovarian): 6.49 µM | TGI (OVCAR-4 ovarian): > 100 µM | GI50 (OVCAR-5 ovarian): > 100 µM | TGI (OVCAR-5 ovarian): > 100 µM | GI50 (OVCAR-8 ovarian): 11.8 µM | TGI (OVCAR-8 ovarian): > 100 µM | GI50 (PC-3 prostate): 7.27 µM | TGI (PC-3 prostate): > 100 µM | GI50 (RPMI-8226 leukemia): 3.34 µM | TGI (RPMI-8226 leukemia): 9.04 µM | GI50 (RXF 393 renal): 2450 nM | TGI (RXF 393 renal): 11.5 µM | GI50 (SF-268 CNS): > 100 µM | TGI (SF-268 CNS): > 100 µM | GI50 (SF-295 CNS): > 100 µM | TGI (SF-295 CNS): > 100 µM | GI50 (SF-539 CNS): 20.3 µM | TGI (SF-539 CNS): > 100 µM | GI50 (SK-MEL-2 melanoma): > 100 µM | TGI (SK-MEL-2 melanoma): > 100 µM | GI50 (SK-MEL-28 melanoma): > 100 µM | TGI (SK-MEL-28 melanoma): > 100 µM | GI50 (SK-MEL-5 melanoma): > 29.3 µM | TGI (SK-MEL-5 melanoma): > 100 µM | GI50 (SK-OV-3 ovarian): > 100 µM | TGI (SK-OV-3 ovarian): > 100 µM | GI50 (SN12C renal): > 100 µM | TGI (SN12C renal): > 100 µM | GI50 (SNB-19 CNS): > 100 µM | TGI (SNB-19 CNS): > 100 µM | GI50 (SNB-75 CNS): 33.5 µM | TGI (SNB-75 CNS): > 100 µM | GI50 (SR leukemia): 2840 nM | TGI (SR leukemia): 14.9 µM | GI50 (SW-620 colon): > 90.1 µM | TGI (SW-620 colon): > 100 µM | GI50 (T-47D breast): 6.03 µM | TGI (T-47D breast): > 100 µM | GI50 (TK-10 renal): > 100 µM | TGI (TK-10 renal): > 100 µM | GI50 (U251 glioblastoma): 88.8 µM | TGI (U251 glioblastoma): > 100 µM | GI50 (UACC-257 melanoma): > 100 µM | TGI (UACC-257 melanoma): > 100 µM | GI50 (UACC-62 melanoma): > 100 µM | TGI (UACC-62 melanoma): > 100 µM | GI50 (UO-31 renal): 1940 nM | TGI (UO-31 renal): 7.54 µM
